pIC50: −log10 of the molar value.
What was measured:
[1] = tested on: phosphorylation of Cdc2 Y15 (Wee1 substrate) in A427 cells; experiment: Phosphorylated Cdc2 MSD Electrochemiluminescence Assay; type: cell-based; settings: Homo sapiens, A-427, class symbols, read-out: A427 pCDC2 MSD IC50
Summary of the method: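 Read-out: percent residual phospho-Cdc2 Y15 relative to DMSO and positive-control Wee1 inhibitor, measured by MSD electrochemiluminescence capture/detection antibody assay in cell lysates. A427 cells received duplicate 3-fold compound dilution series 20 h post-seeding, with 6 h total incubation at 37 °C.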

Wee1 kinase domain = biological target: T1, Wee1 kinase domain (Homo sapiens, UniProt P30291); experiment: Wee1 Kinase Biochemical Assay (ADP-Glo); settings: class symbols; 1 nM Wee1 enzyme, 15 uM ATP, 4 hours at 25° C.
T1 construct: Wee1 kinase domain was purchased from Carna (catalog #05-177); purchased Carna 05-177
Summary of the method: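 The reaction mix held 1 nM Wee1 kinase domain, 15 uM ATP and 2 ng/mL Poly(Lys,Tyr 4:1) substrate and was left for 4 hours at 25 °C. ADP production was then measured with ADP-Glo, and percent inhibition was derived relative to DMSO and a saturating Wee1 inhibitor.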

T1 sequence (P30291 299-569 limits assumed): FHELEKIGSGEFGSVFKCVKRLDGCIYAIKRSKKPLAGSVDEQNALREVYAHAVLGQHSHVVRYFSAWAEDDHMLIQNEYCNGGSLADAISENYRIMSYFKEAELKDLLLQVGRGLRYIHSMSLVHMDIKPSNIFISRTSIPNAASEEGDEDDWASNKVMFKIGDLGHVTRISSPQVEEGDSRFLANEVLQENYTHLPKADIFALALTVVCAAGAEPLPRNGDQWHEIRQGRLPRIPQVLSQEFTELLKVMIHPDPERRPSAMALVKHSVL

SMILES | pIC50 [1] | pIC50 (Wee1 kinase domain)
CC1(C)C[C@H]2N(c3cccc([C@@H]4CCCN4)n3)c3nc(Nc4ccc(N5CCOCC5)cc4)ncc3[C@@]2(C)CO1 (single isomer, unassigned) [Example 526] | 6.00 to 7.00 | > 8.00
Cc1cc(Nc2ncc3c(n2)N(c2cccc([C@@H]4CCCN4)n2)[C@@H]2CC(C)(C)OC[C@]32C)ccc1N1CCOCC1 (single isomer, unassigned) [Example 529] | 6.00 to 7.00 | > 8.00
CC1(C)C[C@H]2N(c3cccc(C4(F)CNC4)n3)c3nc(Nc4ccc(N5CCOCC5)cc4)ncc3[C@@]2(C)CO1 (single isomer, unassigned) [Example 545] | 6.00 to 7.00 | > 8.00
CN[C@@H]1CCc2ccc(N3c4nc(Nc5ccc(N6CCOCC6)cc5)ncc4[C@@]4(C)COC(C)(C)C[C@@H]34)nc21 (single isomer, unassigned) [Example 553] | 6.00 to 7.00 | > 8.00
CC1(C)C[C@H]2N(c3ccc4c(n3)CCNC4)c3nc(Nc4ccc(N5CCOCC5)cc4)ncc3[C@@]2(C)CO1 (single isomer, unassigned) [Example 562] | 6.00 to 7.00 | > 8.00
CC1(C)C[C@H]2N(c3ccc4c(n3)[C@](C)(N)CC4)c3nc(Nc4ccc(N5CCOCC5)cc4)ncc3[C@@]2(C)CO1 (single isomer, unassigned) [Example 564] | > 7.00 | > 8.00
CC1(C)C[C@H]2N(c3ccc4c(n3)[C@@](C)(N)CC4)c3nc(Nc4ccc(N5CCOCC5)cc4)ncc3[C@@]2(C)CO1 (single isomer, unassigned) [Example 565] | 6.00 to 7.00 | > 8.00
CC1(C)C[C@H]2N(c3cccc(C(C)(C)N)n3)c3nc(Nc4ccc(N5CCOCC5)cc4)ncc3[C@@]2(C)CO1 (single isomer, unassigned) [Example 567] | > 7.00 | > 8.00
CN[C@]1(C)CCc2ccc(N3c4nc(Nc5ccc(N6CCOCC6)cc5)ncc4[C@@]4(C)COC(C)(C)C[C@@H]34)nc21 (single isomer, unassigned) [Example 569] | > 7.00 | > 8.00
CNCc1cccc(N2c3nc(Nc4ccc(N5CCOCC5)cc4)ncc3[C@@]3(C)COCC[C@@H]23)n1 (single isomer, unassigned) [Example 572] | 6.00 to 7.00 | > 8.00
C[C@H]1CCC(=O)N1c1cccc(N2c3nc(Nc4ccc(N5CCN(C)CC5)cc4)ncc3[C@@]3(C)COC(C)(C)C[C@@H]23)n1 (single isomer, unassigned) [Example 583] | 6.00 to 7.00 | > 8.00
Cc1cc(Nc2ncc3c(n2)N(c2cccc(C(=O)N(C)C)n2)[C@@H]2CC(C)(C)OC[C@]32C)ccc1C1CCN(C)CC1 (single isomer, unassigned) [Example 585] | 6.00 to 7.00 | > 8.00
C[C@@H]1COC(=O)N1c1cccc(N2c3nc(Nc4ccc(N5CCN(C)CC5)cc4)ncc3[C@@]3(C)COC(C)(C)C[C@@H]23)n1 (single isomer, unassigned) [Example 589] | 6.00 to 7.00 | > 8.00
CN1C[C@@H]2C[C@H]1CN2c1ccc(Nc2ncc3c(n2)N(c2cccc(N4CCOC4=O)n2)[C@@H]2CC(C)(C)OC[C@]32C)cc1 (single isomer, unassigned) [Example 595] | 6.00 to 7.00 | > 8.00
CN1CC[C@H](c2ccc(Nc3ncc4c(n3)N(c3cccc(N5CCOC5=O)n3)[C@@H]3CC(C)(C)OC[C@]43C)cc2)C1 (single isomer, unassigned) [Example 602] | 6.00 to 7.00 | > 8.00
CC1(C)C[C@H]2N(c3cccc(N4CCOC4=O)n3)c3nc(Nc4ccc([C@@H]5CCNC5)cc4)ncc3[C@@]2(C)CO1 (single isomer, unassigned) [Example 607] | 6.00 to 7.00 | > 8.00
C[C@H]1COC(=O)N1c1cccc(N2c3nc(Nc4ccc(N5CCN(C)CC5)cc4)ncc3[C@@]3(C)COCC[C@@H]23)n1 (single isomer, unassigned) [Example 702] | 6.00 to 7.00 | > 8.00

The next lines start with the values.

pIC50 [1] | pIC50 (Wee1 kinase domain) | SMILES
5.00 to 6.00 | > 8.00 | CN1C[C@H]2C[C@@H]1CN2c1ccc(Nc2ncc3c(n2)N(c2ccn(C)n2)[C@@H]2CC(C)(C)OC[C@]32C)cc1 (single isomer, unassigned) [Example 520]
6.00 to 7.00 | > 8.00 | Cc1cc(Nc2ncc3c(n2)N(c2cccc([C@H]4CCCN4)n2)[C@@H]2CC(C)(C)OC[C@]32C)ccc1N1CCOCC1 (single isomer, unassigned) [Example 522]
6.00 to 7.00 | > 8.00 | CN(C)Cc1cccc(N2c3nc(Nc4ccc(N5CCOCC5)cc4)ncc3[C@@]3(C)COC(C)(C)C[C@@H]23)n1 (single isomer, unassigned) [Example 523]
6.00 to 7.00 | > 8.00 | CC1(C)C[C@H]2N(c3cccc(C4CCNCC4)n3)c3nc(Nc4ccc(N5CCOCC5)cc4)ncc3[C@@]2(C)CO1 (single isomer, unassigned) [Example 531]
6.00 to 7.00 | > 8.00 | CN1CCC(c2cccc(N3c4nc(Nc5ccc(N6CCOCC6)cc5)ncc4[C@@]4(C)COC(C)(C)C[C@@H]34)n2)CC1 (single isomer, unassigned) [Example 533]
6.00 to 7.00 | > 8.00 | CN1CCN(c2cccc(N3c4nc(Nc5ccc(N6CCOCC6)cc5)ncc4[C@@]4(C)COC(C)(C)C[C@@H]34)n2)CC1 (single isomer, unassigned) [Example 535]
6.00 to 7.00 | > 8.00 | CN[C@@H](C)c1cccc(N2c3nc(Nc4ccc(N5CCOCC5)cc4)ncc3[C@@]3(C)COC(C)(C)C[C@@H]23)n1 (single isomer, unassigned) [Example 537]
6.00 to 7.00 | > 8.00 | CC1(C)C[C@H]2N(c3cccc([C@H]4CCNC4)n3)c3nc(Nc4ccc(N5CCOCC5)cc4)ncc3[C@@]2(C)CO1 (single isomer, unassigned) [Example 542]
6.00 to 7.00 | > 8.00 | CNC1(c2cccc(N3c4nc(Nc5ccc(N6CCOCC6)cc5)ncc4[C@@]4(C)COC(C)(C)C[C@@H]34)n2)CC1 (single isomer, unassigned) [Example 543]
> 7.00 | > 8.00 | CN[C@H](C)c1cccc(N2c3nc(Nc4ccc(N5CCOCC5)cc4)ncc3[C@@]3(C)COC(C)(C)C[C@@H]23)n1 (single isomer, unassigned) [Example 549]
6.00 to 7.00 | 7.00 to 8.00 | CNC1(c2cccc(N3c4nc(Nc5ccc(C6CCN(C)CC6)c(C)c5)ncc4[C@]4(C)COC(C)(C)C[C@H]34)n2)CC1 (single isomer, unassigned) [Example 574]
> 7.00 | > 8.00 | CNC1(c2cccc(N3c4nc(Nc5ccc(C6CCN(C)CC6)c(C)c5)ncc4[C@@]4(C)COC(C)(C)C[C@@H]34)n2)CC1 (single isomer, unassigned) [Example 575]
> 7.00 | > 8.00 | CN1CCN(c2ccc(Nc3ncc4c(n3)N(c3cccc(N5CCOC5=O)n3)[C@@H]3CC(C)(C)OC[C@]43C)cc2)CC1 (single isomer, unassigned) [Example 577]
6.00 to 7.00 | > 8.00 | CN[C@@H](C)c1cccc(N2c3nc(Nc4ccc(N5C[C@H]6C[C@@H]5CO6)cc4)ncc3[C@]3(C)COC(C)(C)C[C@H]23)n1 (single isomer, unassigned) [Example 579]
6.00 to 7.00 | > 8.00 | CN[C@@H](C)c1cccc(N2c3nc(Nc4ccc(N5C[C@@H]6C[C@H]5CO6)cc4)ncc3[C@@]3(C)COC(C)(C)C[C@@H]23)n1 (single isomer, unassigned) [Example 581]
6.00 to 7.00 | > 8.00 | CN1CCN(c2ccc(Nc3ncc4c(n3)N(c3cccc(N5CCCC5=O)n3)[C@@H]3CC(C)(C)OC[C@]43C)cc2)CC1 (single isomer, unassigned) [Example 587]
6.00 to 7.00 | > 8.00 | CN1CCC(c2ccc(Nc3ncc4c(n3)N(c3cccc(N5CCOC5=O)n3)[C@@H]3CC(C)(C)OC[C@]43C)cc2)CC1 (single isomer, unassigned) [Example 591]
6.00 to 7.00 | > 8.00 | CN1C[C@H]2C[C@@H]1CN2c1ccc(Nc2ncc3c(n2)N(c2cccc(N4CCOC4=O)n2)[C@@H]2CC(C)(C)OC[C@]32C)cc1 (single isomer, unassigned) [Example 593]
6.00 to 7.00 | > 8.00 | Cc1cc(Nc2ncc3c(n2)N(c2cccc(N4CCOC4=O)n2)[C@@H]2CC(C)(C)OC[C@]32C)ccc1C1CCN(C)CC1 (single isomer, unassigned) [Example 597]
6.00 to 7.00 | > 8.00 | C[C@H]1CN(c2cccc(N3c4nc(Nc5ccc(N6CCN(C)CC6)cc5)ncc4[C@@]4(C)COC(C)(C)C[C@@H]34)n2)C(=O)O1 (single isomer, unassigned) [Example 599]
6.00 to 7.00 | > 8.00 | CN1CC[C@@H](c2ccc(Nc3ncc4c(n3)N(c3cccc(N5CCOC5=O)n3)[C@@H]3CC(C)(C)OC[C@]43C)cc2)C1 (single isomer, unassigned) [Example 605]
6.00 to 7.00 | > 8.00 | CC1(C)C[C@H]2N(c3cccc(N4CCOC4=O)n3)c3nc(Nc4ccc([C@H]5CCNC5)cc4)ncc3[C@@]2(C)CO1 (single isomer, unassigned) [Example 608]
5.00 to 6.00 | > 8.00 | CN1CC2CC1CN2c1ccc(Nc2ncc3c(n2)N(c2cccc(N=S(C)(C)=O)c2)C2CC(C)(C)OCC32C)cc1 (single isomer, unassigned) [Example 712]
